Data on two compounds can be found in ChEMBL document CHEMBL1201862, “PubChem BioAssay data set” (2004).

Calls of active or inactive are those of the source. Rule as the data show it: actives have a measured IC50 and inactives only a lower limit.

The target in assay [1] is T1, Bcl-2-related protein A1 (Mus musculus, UniProt Q07440).
T1 sequence (Q07440 whole entry): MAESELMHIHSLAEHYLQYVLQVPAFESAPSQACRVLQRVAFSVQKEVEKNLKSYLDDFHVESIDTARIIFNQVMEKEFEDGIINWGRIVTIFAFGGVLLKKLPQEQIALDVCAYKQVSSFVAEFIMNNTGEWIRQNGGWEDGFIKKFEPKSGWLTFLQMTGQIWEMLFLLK
As to the kind of experiment: small-molecule antagonists of Bfl-1/BH3 interaction – biochemical, TR-FRET, mouse Bfl-1, confirmation (AID 621).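 Also: TR-FRET binding of GST-Bfl-1 to FITC-labelled Bid peptide via terbium antibody.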 In general terms: In TR-FRET formats the signal depends on donor and acceptor labels being close together.

For assay [2], the target named is Glyceraldehyde-3-phosphate dehydrogenase (Homo sapiens, UniProt P04406).
Chain of Glyceraldehyde-3-phosphate dehydrogenase (P04406 whole entry): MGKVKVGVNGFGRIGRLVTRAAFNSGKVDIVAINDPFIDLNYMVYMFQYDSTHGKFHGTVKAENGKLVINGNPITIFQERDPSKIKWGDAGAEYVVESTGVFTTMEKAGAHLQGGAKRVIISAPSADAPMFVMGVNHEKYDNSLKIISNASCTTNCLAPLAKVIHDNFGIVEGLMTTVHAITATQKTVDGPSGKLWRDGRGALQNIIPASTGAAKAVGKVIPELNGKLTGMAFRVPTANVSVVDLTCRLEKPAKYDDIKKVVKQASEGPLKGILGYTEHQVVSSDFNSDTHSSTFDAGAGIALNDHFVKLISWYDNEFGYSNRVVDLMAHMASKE
For assay [3], the target named is T1, Bcl-2-related protein A1. Nature of the assay: Bfl-1 binding inhibitors, SAR follow-up, biochemical, fluorescence polarization (AID 1070). (Polarisation of emitted light reports the rotation of a fluorescent probe.)

Turning to `CCN1CCN(C2=C(Cl)C(=O)N(c3ccc(Cl)c(Cl)c3)C2=O)CC1`, the figures for the 50% inhibitory concentration (IC50) in assay [1], in assay [2] and in assay [3] were 0.97 µM (active), > 100 µM (not active) and 1.67 µM (active), respectively.
The corresponding values for `CN(C)C1=C(Cl)C(=O)N(c2cccc([N+](=O)[O-])c2)C1=O` are > 100 µM (not active), > 100 µM (not active) and 2.3 µM (active).

A word on the IC50: it is the concentration at which inhibition is half-maximal.
